Results as given in patent US4764433A, “Agent for the protection of materials” (Bayer Aktiengesellschaft, priority 1985, dated 1988).
Converted amounts (≈) assume the structure as drawn.

Key:
Chaetomium globosum = assay: MIC against fungi (agar, beer wort and peptone); format: cell-based; conditions: 336 h, 2 weeks at 28° C., 60 to 70% relative humidity, read-out: MIC values when substances according to the invention act on fungi
Experimental: (§1) Compounds according to the invention are added, in concentrations of 0.1 mg/l to 5,000 mg/l, to an agar prepared from beer wort and peptone.

Aspergillus niger = assay: MIC against fungi (agar, beer wort and peptone); format: cell-based; conditions: 336 h, 2 weeks at 28° C., 60 to 70% relative humidity, read-out: MIC values when substances according to the invention act on fungi
Experimental: as §1

Aureobasidium pullulans = assay: MIC against fungi (agar, beer wort and peptone); format: cell-based; conditions: 336 h, 2 weeks at 28° C., 60 to 70% relative humidity, read-out: MIC values when substances according to the invention act on fungi
Experimental: as §1

Alternaria tenuis = assay: MIC against fungi (agar, beer wort and peptone); format: cell-based; conditions: Alternaria alternata, 336 h, 2 weeks at 28° C., 60 to 70% relative humidity, read-out: MIC values when substances according to the invention act on fungi
Experimental: as §1

Polyporus versicolor [1] = assay: MIC against fungi (agar, beer wort and peptone); format: cell-based; conditions: Trametes versicolor, 336 h, 2 weeks at 28° C., 60 to 70% relative humidity, read-out: MIC values when substances according to the invention act on fungi
Experimental: as §1

Coniophora puteana [2] = assay: MIC against fungi (agar, beer wort and peptone); format: cell-based; conditions: 336 h, 2 weeks at 28° C., 60 to 70% relative humidity, read-out: MIC values when substances according to the invention act on fungi
Experimental: as §1

Penicillium glaucum = assay: MIC against fungi (agar, beer wort and peptone); format: cell-based; conditions: 336 h, 2 weeks at 28° C., 60 to 70% relative humidity, read-out: MIC values when substances according to the invention act on fungi
Experimental: as §1

Lentinus tigrinus = assay: MIC against fungi (agar, beer wort and peptone); format: cell-based; conditions: 336 h, 2 weeks at 28° C., 60 to 70% relative humidity, read-out: MIC values when substances according to the invention act on fungi
Experimental: as §1

Sclerophoma pityophila = assay: MIC against fungi (agar, beer wort and peptone); format: cell-based; conditions: Sydowia polyspora, 336 h, 2 weeks at 28° C., 60 to 70% relative humidity, read-out: MIC values when substances according to the invention act on fungi
Experimental: as §1

Polyporus versicolor [3] = assay: Limiting toxic values (toxicity limits) on beechwood; conditions: 6 weeks at 21° to 23° C.; concentrations at which timber still attacked - no longer attacked
Experimental: (§2) Determination of the limiting toxic values (kg/m^3 of timber) of active compounds according to the invention for Coniophora puteana and Polyporus versicolor on pinewood and beechwood, respectively.
(§3) The limiting toxic values are determined by a method modelled on the method described by H. P. Sutter, Int. Biodeterioration Bulletin, 14 (3), 1978, pages 95 to 99.
(§4) For each test, freshly cut, thin pieces of cross-cut timber (dimensions 40×40 mm, thickness about 2 mm) are impregnated in vacuo with solutions of varying concentrations of active compounds. In each case one concentration of active compound is used to impregnate 15 timber samples simultaneously. 5 of these are in each case used at the same time for a mycological test.
(§5) The amount of active compound absorbed is determined from the retention of solvent (determined by weighing the small piece of timber before and after impregnation), the density of the timber and the concentration of the active compound in the residual impregnating solution.
(§6) Before the mycological test, the test specimens are sterilized with propylene oxide and in each case 1 test specimen is brought into contact in a Petri dish with the fully developed mycellium of the test fungus on malt extract agar. The toxicity limits are determined visually after 6 weeks at 21° to 23° C.
(§7) The toxicity limits ([…] of timber) for substances according to the invention are shown in the table below; the toxicity limits indicate the concentrations at which the timber is still attacked and at which the timber is no longer attacked.

Coniophora puteana [4] = assay: Limiting toxic values (toxicity limits) on pinewood; conditions: 6 weeks at 21° to 23° C.; concentrations at which timber still attacked - no longer attacked
Experimental: as §2, §3, §4, §5, §6, §7

Phytophthora infestans = format: in vivo; conditions: for fungicidal properties for plant protection: phytophthora test [tomatoes], sulphamides compared with N-sulphenylated benzenesulphonamides according to the invention; for % attack at an active compound concentration of 10 ppm: tomato plants, protective
[5] = cited from earlier work
slime organisms = assay: Action against slime organisms, MIC in Allen's nutrient solution; format: cell-based; conditions: 504 h, approx. 10^6 microbes/ml, 3 weeks at room temperature, read-out: MIC in mg/l when the substances act on slime organisms
Experimental: Substances according to the invention, dissolved in a little acetone, are used in concentrations of 0.1 to 100 mg/l in a particular case in Allen's nutrient solution (Arch. Mikrobiol., 17, 34 to 53 (1952)), containing, in 4 l of sterile water, 0.2 g of ammonium chloride, 4.0 g of sodium nitrate, 1.0 g of dipotassium hydrogen phosphate, 0.2 g of calcium chloride, 2.05 g of magnesium sulphate, 0.02 g of iron chloride and 1% of caprolactam. Shortly beforehand, the nutrient solution is infested with slime organisms (approx. 10^6 microbes/ml) which have been isolated from circulating spinning water used in the production of polyamide.

| Structure (SMILES) | MIC (Chaetomium globosum) [µg/mL] | MIC (Aspergillus niger) [µg/mL] | MIC (Aureobasidium pullulans) [µg/mL] | MIC (Alternaria tenuis) [µg/mL] | MIC (Polyporus versicolor [1]) [µg/mL] | MIC (Coniophora puteana [2]) [µg/mL] | MIC (Penicillium glaucum) [µg/mL] | MIC (Lentinus tigrinus) [µg/mL] | MIC (Sclerophoma pityophila) [µg/mL] | Toxicity Limits, Polyporus versicolor on beechwood (Polyporus versicolor [3]) | Toxicity Limits, Coniophora puteana on pinewood (Coniophora puteana [4]) | fungicidal properties for plant protection (Phytophthora infestans) | solubility in the formulating agents customary for timber preservatives [5] | MIC (slime organisms) [mg/L] | % attack at an active compound concentration of 10 ppm (Phytophthora infestans) [%] |
| --- | --- | --- | --- | --- | --- | --- | --- | --- | --- | --- | --- | --- | --- | --- | --- |
| O=C1c2ccccc2C(=O)N1SC(F)(Cl)Cl [A, N-fluorodichloromethylthiophthalimide, reference compound] | 100 (≈ 357 µM) | 200 (≈ 714 µM) | 50 (≈ 179 µM) | 10 (≈ 35.7 µM) | 50 (≈ 179 µM) | 2 (≈ 7.14 µM) | 35 (≈ 125 µM) | 2 (≈ 7.14 µM) | 10 (≈ 35.7 µM) |  |  |  |  |  |  |
| CN(C)S(=O)(=O)N(SC(F)(Cl)Cl)c1ccccc1 [B, N,N-dimethyl-N'-phenyl-N'-(fluorodichloromethylthio)-sulphamide, reference compound] | 50 (≈ 150 µM) | 50 (≈ 150 µM) | 7.5 (≈ 22.5 µM) | 10 (≈ 30 µM) | 20 (≈ 60 µM) | 7.5 (≈ 22.5 µM) | 50 (≈ 150 µM) | 10 (≈ 30 µM) | 15 (≈ 45 µM) | 2.23-2.81 kg/m^3 of timber | 1.61-2.25 kg/m^3 of timber | considerably better fungicidal properties for plant protection | very sparingly soluble |  |  |
| Cc1ccc(S(=O)(=O)N(C)SC(F)(Cl)Cl)cc1 [Example 1, N-fluorodichloromethylthio-N-methylamide of 4-toluenesulphonic acid] | 3.5 (≈ 11 µM) | 10 (≈ 31.4 µM) | 5 (≈ 15.7 µM) | 20 (≈ 62.8 µM) | 2 (≈ 6.28 µM) | 0.5 (≈ 1.57 µM) | 10 (≈ 31.4 µM) | 5 (≈ 15.7 µM) | 5 (≈ 15.7 µM) | 2.2-2.9 kg/m^3 of timber | 0.22-0.65 kg/m^3 of timber |  |  | ≤ 2 |  |
| CCN(SC(F)(Cl)Cl)S(=O)(=O)c1ccccc1 [Example 2] | < 2 | 10 (≈ 31.4 µM) |  |  |  |  | 10 (≈ 31.4 µM) |  |  | 1.4-2.4 kg/m^3 of timber | 0.24-0.74 kg/m^3 of timber |  |  | ≤ 2 |  |
| CCCCN(SC(F)(Cl)Cl)S(=O)(=O)c1ccccc1 [Example 3] |  |  |  |  |  |  |  |  |  | 0.63-1.29 kg/m^3 of timber | 0.25-0.76 kg/m^3 of timber |  |  |  |  |
| CCN(SC(F)(Cl)Cl)S(=O)(=O)c1ccc(C)cc1 [Example 4] | 7.5 (≈ 22.6 µM) | 10 (≈ 30.1 µM) | 3.5 (≈ 10.5 µM) | 10 (≈ 30.1 µM) | 0.5 (≈ 1.5 µM) | 0.3 (≈ 0.903 µM) | 20 (≈ 60.2 µM) | 0.5 (≈ 1.5 µM) | 3.5 (≈ 10.5 µM) | 2.8-3.7 kg/m^3 of timber | 0.65-1.3 kg/m^3 of timber |  |  |  |  |
| CCN(SC(F)(Cl)Cl)S(=O)(=O)c1ccc(Cl)cc1 [Example 6] | 35 (≈ 99.2 µM) | 10 (≈ 28.4 µM) | 10 (≈ 28.4 µM) | 20 (≈ 56.7 µM) | 1 (≈ 2.84 µM) | 0.75 (≈ 2.13 µM) | 10 (≈ 28.4 µM) | 0.5 (≈ 1.42 µM) | 7.5 (≈ 21.3 µM) |  |  |  |  |  |  |
| Cc1ccc(S(=O)(=O)N(C)SC(F)(Cl)Cl)cc1[N+](=O)[O-] [Example 8] | 15 (≈ 41.3 µM) | 20 (≈ 55.1 µM) | 5 (≈ 13.8 µM) | 5 (≈ 13.8 µM) | 7.5 (≈ 20.6 µM) | 0.75 (≈ 2.06 µM) | 20 (≈ 55.1 µM) | 5 (≈ 13.8 µM) | 5 (≈ 13.8 µM) |  |  |  |  |  |  |
| CN(SC(F)(Cl)Cl)S(=O)(=O)c1ccc([N+](=O)[O-])cc1 [Example 14] | 20 (≈ 57.3 µM) | 20 (≈ 57.3 µM) | 5 (≈ 14.3 µM) | 35 (≈ 100 µM) | 10 (≈ 28.6 µM) | 3.5 (≈ 10 µM) | 20 (≈ 57.3 µM) | 5 (≈ 14.3 µM) | 3.5 (≈ 10 µM) | 2.2-3.07 kg/m^3 of timber | 0.26-0.79 kg/m^3 of timber |  |  |  |  |
| Cc1ccc(S(=O)(=O)N(C)SC(F)(Cl)Cl)cc1C [Example 17] | 3.5 (≈ 10.5 µM) | 10 (≈ 30.1 µM) |  |  |  |  | 10 (≈ 30.1 µM) |  |  |  |  |  |  |  |  |
| Cc1ccc(C)c(S(=O)(=O)N(C)SC(F)(Cl)Cl)c1 [Example 19] | < 2 | 10 (≈ 30.1 µM) | 35 (≈ 105 µM) | 100 (≈ 301 µM) | 100 (≈ 301 µM) | 7.5 (≈ 22.6 µM) | 20 (≈ 60.2 µM) | 100 (≈ 301 µM) | 10 (≈ 30.1 µM) | 1.07-1.76 kg/m^3 of timber | 0.24-0.72 kg/m^3 of timber |  |  |  |  |
| COCCCN(SC(F)(Cl)Cl)S(=O)(=O)c1ccc(C)cc1 [Example 22] | 5 (≈ 13.3 µM) | 20 (≈ 53.1 µM) |  |  |  |  | 35 (≈ 93 µM) |  |  |  |  |  |  |  |  |
| CN(SC(F)(Cl)Cl)S(=O)(=O)c1ccccc1 [Example 24] | 3.5 (≈ 11.5 µM) | 5 (≈ 16.4 µM) |  |  |  |  | 5 (≈ 16.4 µM) |  |  |  |  |  |  |  |  |
| CN(SC(F)(Cl)Cl)S(=O)(=O)c1ccc(Cl)c(Cl)c1 [Example 25] | 7.5 (≈ 20.1 µM) | 20 (≈ 53.6 µM) |  |  |  |  | 10 (≈ 26.8 µM) |  |  |  |  |  |  |  |  |
| CN(SC(F)(Cl)Cl)S(=O)(=O)c1ccc(Cl)c([N+](=O)[O-])c1 [Example 26] | 20 (≈ 52.1 µM) | 50 (≈ 130 µM) |  |  |  |  | 20 (≈ 52.1 µM) |  |  |  |  |  |  |  |  |
| CN(SC(F)(Cl)Cl)S(=O)(=O)c1cccc([N+](=O)[O-])c1 [Example 27] | 20 (≈ 57.3 µM) | 20 (≈ 57.3 µM) |  |  |  |  | 20 (≈ 57.3 µM) |  |  |  |  |  |  |  |  |
| CN(SC(F)(Cl)Cl)S(=O)(=O)c1cc(Cl)ccc1Cl [Example 28] | 35 (≈ 93.8 µM) | 20 (≈ 53.6 µM) |  |  |  |  | 15 (≈ 40.2 µM) |  |  |  |  |  |  |  |  |
| Cc1ccc(N(SC(F)(Cl)Cl)S(=O)(=O)N(C)C)cc1 [N,N-dimethyl-N'-(4-tolyl)-N'-dichlorofluoromethylthio-sulphamide] |  |  |  |  |  |  |  |  |  |  |  | considerably better fungicidal properties for plant protection |  |  |  |
| CN(C)S(=O)(=O)N(SC(F)(Cl)Cl)c1ccccc1 [drawing 12] |  |  |  |  |  |  |  |  |  |  |  |  |  |  | 19 |
| Cc1ccc(N(SC(F)(Cl)Cl)S(=O)(=O)N(C)C)cc1 [drawing 13] |  |  |  |  |  |  |  |  |  |  |  |  |  |  | 14 |
